Legend:
[1] = system: icv streptozotocin (stz) rat model of Alzheimer Disease; assay: Novel object recognition test in icv streptozotocin rat model of Alzheimer Disease; format: in vivo, Wistar rats; conditions: STZ 3 mg/kg icv, daily treatment 8 days, test after 24 h; 1j 25 mg/kg ip, 7-COOH-CBD 20 mg/kg; N=6
From the text: This in vivo model represents a model for the most frequent form of Alzheimer Disease, the late onset or ‘sporadic’ form. The icv injection of stz in the rat brain induces pathological changes that are observed in patients with Alzheimer Disease, like accumulation of beta-amyloid and Tau-protein and the well-known cognitive impairment. This well-known model was first described in the 90-ies by Mayer et al. (1990) and Lannert et al. (1998). The procedure for the creation of the model has recently been described in detail by Moreiro-Silva et al. (2019). In short, a 1-3 mg/kg dose of stz is injected bilateraly by icv injection in Wistar rats, and the animals are allowed to recover for a period of 7 days, after which animals can be evaluated for neurodegenerative changes in behaviour and/or by imaging of the brain.
The novel object recognition data were analyzed using the Student's t-test, with differences being considered significant if p<0.05.
On day 8, the animals were subjected to the novel object recognition (NOR) behavioural test. All objects used for the is test had similar textures, colors, and sizes but distinctive shapes. The rats were placed in a rectangular arena (76×49×57 cm) containing two identical objects (A1+A2) for the habituation and training phase. […] The discrimination index was calculated by: […]

GPR3 receptor [2] = target: T1, GPR3 receptor (Homo sapiens, UniProt P46089); conditions: cited from earlier work; for mode of action at the GPR3 receptor: Laun and Song 2017, Lunn et al 2006
GPR3 receptor [3] = target: T1, GPR3 receptor; assay: PathHunter β-arrestin2 recruitment assay in CHO-K1 cells expressing GPR3-PK; format: cell-based; parameters: host or cells: CHO-K1 (PathHunter eXpress kit); conditions: for mode of action at the GPR3 receptor (β-arrestin2 recruitment): 0.1 μM, 1 μM and 10 μM, FIG. 1
From the text: The PathHunter™ eXpress kits containing Chinese hamster ovary (CHO)-K1 cells co-expressing EA-O-arrestin2 human and GPR3-PK were purchased from DiscoverX (Fremont, CA). All cannabinoid ligands were purchased from BDG Synthesis (Wellington, New Zealand).
PathHunter™ eXpress kits were used to measure GPR3-mediated β-arrestin2 recruitment following manufacturer's instructions. In this system, Chinese hamster ovary (CHO)-K1 cell line are stably expressing the GPR3 receptors which were fused to a “ProLink (PK)” fragment of βi-galactosidase to form GPR3-PK. The remaining sequence of β-galactosidase enzyme acceptor (EA) was linked to β-arrestin2 to form EA-β-arrestin2. Recruitment of Si-arrestin2 by receptor activation causes complementation of the two enzyme fragments. Levels of the active enzyme are the direct result of β-arrestin2 recruitment caused by receptor activation and quantified using the PathHunter detection reagent containing β-galactosidase substrates. Cells were plated in DiscoverX cell plating reagent1 in 384-well plates and cultured for 24-48 hours prior to experimentation in a humidified atmosphere at 37° C. and 5% CO2. Cannabinoid ligands were diluted in DiscoverX cell plating reagent1. Cells were then incubated with ligand at 37° C. following manufacturer's recommendations, followed by incubation with detection reagent in the dark for 1 hour at 23° C. Luminescence signal was then detected using a TECAN GENios Pro microplate reader.
Ligand-induced changes in R-arrestin2 recruitment to GPR3 were expressed as percent basal relative luminescence units, which was calculated by dividing luminescence readings in the presence of ligands by basal luminescence readings, times 100. Concentration-response curves were generated by performing nonlinear regression analysis using GraphPad Prism (GraphPad Software, La Jolla, CA). Data were analyzed using one-way analysis of variance (ANOVA) followed by NewmanKeuls post-test. Data points shown are presented as mean±SEM, and were obtained from three independent experiments performed in quadruplicate.
To determine whether CBD and its human metabolites 6-OH-CBD, 7-OH-CBD and 7-COOH-CBD are capable of changing S3-arrestin2 recruitment to GPR3, β-arrestin2 recruitment assays were performed using 0.1 μM and 1 μM and 10 μM concentrations.

[4] = after CBD, in the body; cited from earlier work
[5] = system: animal models of epilepsy; conditions: cited from earlier work
[6] = system: CB1 and CB2 receptors as well as the voltage gated Na channel and mono-amine transporters; conditions: physiological relevant concentrations; cited from earlier work

T1 sequence (P46089 whole entry): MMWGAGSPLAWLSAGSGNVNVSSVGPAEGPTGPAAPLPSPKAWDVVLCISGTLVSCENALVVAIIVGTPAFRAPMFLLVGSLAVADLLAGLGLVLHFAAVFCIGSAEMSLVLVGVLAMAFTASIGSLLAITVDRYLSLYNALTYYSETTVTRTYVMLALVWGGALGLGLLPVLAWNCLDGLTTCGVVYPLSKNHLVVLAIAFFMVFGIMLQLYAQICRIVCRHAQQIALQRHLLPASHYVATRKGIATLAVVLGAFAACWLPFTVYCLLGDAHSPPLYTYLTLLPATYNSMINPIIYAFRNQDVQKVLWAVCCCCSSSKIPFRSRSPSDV

In the case of “(3R-trans)-3-(2,6-dihydroxy-4-pentylphenyl)-4-(1-methylethenyl)-1-cyclohexene-1-carboxylic acid cyclopropane ester [Example 1j]”, the “long-term memory index (discrimination index), novel object recognition” value [1] is reported as 80.5±3.9.
In the case of `COc1ccc(S(=O)(=O)c2cc(OC)ccc2S(=O)(=O)c2ccc([C@H](C)NS(C)(=O)=O)cc2)cc1` [Sch.336, N-[1(S)-[4-[[4-methoxy-2-[(4-methoxyphenyl)sulfonyl]phenyl]-sulfonyl]phenyl]ethyl]methanesulfonamide], the “mode of action at the GPR3 receptor” value (GPR3 receptor [2]) is listed as “inverse agonist”.
In the case of `C=C(C)[C@@H]1C[C@H](O)C(C)=C[C@H]1c1c(O)cc(CCCCC)cc1O` [Example 6-OH-CBD], the “mode of action at the GPR3 receptor (β-arrestin2 recruitment)” value (shortened to “mode of action … (β-arrestin2 recruitment)”) (GPR3 receptor [3]) is reported as “weak agonists”.
For `C=C(C)[C@@H]1CCC(C)=C[C@H]1c1c(O)cc(CCCCC)cc1O` [CBD, Cannabidiol], the “mode of action at the GPR3 receptor” value (GPR3 receptor [2]) is listed as “inverse agonist”, the IC50 (GPR3 receptor [2]; inverse agonism) is listed as 1.22 µM and the “inhibition of GPR3 receptor activity” value (GPR3 receptor [2]; inverse agonist, dose-dependent) is listed as 39%. The “mode of action … (β-arrestin2 recruitment)” value (GPR3 receptor [3]) was “inverse agonist”.
For `C=C(C)[C@@H]1CCC(C(=O)O)=C[C@H]1c1c(O)cc(CCCCC)cc1O` [Example 7-COOH-CBD, (3R-trans)-3-(2,6-dihydroxy-4-pentylphenyl)-4-(1-methylethenyl)-1-cyclohexene-1-carboxylic acid], the “long-term memory index (discrimination index), novel object recognition” value [1] is listed as 79.6±3.4, the “plasma levels of metabolite relative to parent compound CBD” value [4] is listed as “up to 50 fold” and the anticonvulsant action [5] is listed as “devoid of any anticonvulsant action”. The “binding or modulation in in vitro binding/target panel” value [6] was “no binding or modulation properties”, the “mode of action … (β-arrestin2 recruitment)” value (GPR3 receptor [3]) was “full antagonist” and the “competition with SR144528 at the GPR3 binding site” value (GPR3 receptor [3]; 10 μM 7-COOH-CBD, ascending concentrations of SR144528) was “displaces the inverse agonist from the GPR3 binding site”.
In the case of `C=C(C)[C@@H]1CCC(CO)=C[C@H]1c1c(O)cc(CCCCC)cc1O` [Example 7-OH-CBD, 7-hydroxy-CBD], the “plasma levels of metabolite relative to plasma levels of parent compound CBD” value [4] is listed as “about 50%”, the anticonvulsant action [5] is listed as “equipotency to CBD” and the “mode of action … (β-arrestin2 recruitment)” value (GPR3 receptor [3]) is listed as “weak agonists”.

— patent US20240327331A1, “ESTERS OF 7-COOH CBD DERIVATIVES AND THEIR USE AS PREVENTION, PROPHYLAXIS OF PROGRESSION, AND/OR TREATMENT OF NEUROGENERATIVE DISEASES” (Receptor Pharma INC, priority 2021, published 2024)
